The assay concerns the target T1, Human plasma kallikrein (Homo sapiens, UniProt P03952).
T1 construct: yields a heavy chain (371 amino acids) and a light chain (248 amino acids); purchased Enzyme Research Laboratories
Put plainly: Kallikrein Assay (fluorogenic substrate hydrolysis, AFC release). In kind it is biochemical. The following applies: purified Human plasma kallikrein 0.5 nM; substrate Acetyl-K—P—R-AFC 100 mM; 50 mM HEPES pH 7.4. How it is done:
The effectiveness of a compound of the present invention as an inhibitor of Kallikrein can be determined using a relevant purified serine protease, and an appropriate synthetic substrate. The rate of hydrolysis of the chromogenic or fluorogenic substrate by the relevant serine protease was measured both in the absence and presence of compounds of the present invention. Assays were conducted at room temperature or at 37° C. […] A decrease in the rate of fluorescence change in the presence of inhibitor is indicative of enzyme inhibition. Such methods are known to one skilled in the art. The results of this assay are expressed as the half-maximal inhibitory concentrations (IC50), or the inhibitory constant, Ki.
Kallikrein determinations were made in 50 mM HEPES buffer at pH 7.4 containing 150 mM NaCl, 5 mM CaCl2), and 0.1% PEG 8000 (polyethylene glycol; Fisher Scientific). Determinations were made using purified Human plasma kallikrein at a final concentration of 0.5 nM (Enzyme Research Laboratories) and the synthetic substrate, Acetyl-K—P—R-AFC (Sigma #C6608) at a concentration of […].
Activity assays were performed by diluting a stock solution of substrate at least tenfold to a final concentration ≤0.2 Km into a solution containing enzyme or enzyme equilibrated with inhibitor. Times required to achieve equilibration between enzyme and inhibitor were determined in control experiments. The reactions were performed under linear progress curve conditions and fluorescence increase measured at 405 Ex/510 Em nm. Values were converted to percent inhibition of the control reaction (after subtracting 100% Inhibition value). IC50 was determined by inflection point from a four parameter logistic curve fit. Ki was calculated using the Cheng Prusoff equation, Ki=IC50/(1+([S]/Km)).
T1 sequence (P03952 391-638 limits assumed): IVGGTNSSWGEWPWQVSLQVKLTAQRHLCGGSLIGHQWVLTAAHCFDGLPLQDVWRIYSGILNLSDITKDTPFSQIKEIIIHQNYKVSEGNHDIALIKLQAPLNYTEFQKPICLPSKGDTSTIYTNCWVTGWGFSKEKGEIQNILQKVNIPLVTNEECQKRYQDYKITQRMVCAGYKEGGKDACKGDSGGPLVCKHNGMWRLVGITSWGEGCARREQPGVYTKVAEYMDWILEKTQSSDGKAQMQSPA
T1 sequence (P03952 20-390 partner limits assumed): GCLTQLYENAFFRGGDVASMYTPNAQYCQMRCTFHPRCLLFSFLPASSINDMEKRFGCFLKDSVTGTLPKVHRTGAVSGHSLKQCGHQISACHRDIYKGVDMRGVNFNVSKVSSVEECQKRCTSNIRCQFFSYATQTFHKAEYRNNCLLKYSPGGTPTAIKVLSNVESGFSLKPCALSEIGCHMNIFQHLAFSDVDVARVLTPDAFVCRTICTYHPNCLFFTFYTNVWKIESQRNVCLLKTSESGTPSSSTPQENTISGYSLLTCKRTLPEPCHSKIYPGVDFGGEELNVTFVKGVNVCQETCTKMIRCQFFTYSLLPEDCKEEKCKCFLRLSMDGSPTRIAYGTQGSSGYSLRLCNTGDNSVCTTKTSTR
Turning to `CC(c1cnc(N2C[C@H]3C[C@H]3C2=O)c(F)c1)n1cc(C(=O)N[C@H]2C[C@@H](c3cc(Cl)ccc3C#N)C2)cn1` (single isomer, unassigned) [Example 21, N-((cis)-3-(5-chloro-2-cyanophenyl)cyclobutyl)-1-((R or S)-1-(5-fluoro-6-((1R,5S)-2-oxo-3-azabicyclo[3.1.0]hexan-3-yl)pyridin-3-yl)ethyl)-1H-pyrazole-4-carboxamide], inhibition was half-maximal at 1.1 nM (IC50).
The result for `COc1c(N2C[C@H]3C[C@H]3C2=O)ncc(C(C)n2cc(C(=O)N[C@H]3C[C@@H](c4cc(Cl)ccc4C#N)C3)cn2)c1C` (single isomer, unassigned) [Example 43, N-((cis)-3-(5-chloro-2-cyanophenyl)cyclobutyl)-1-((R or S)-1-(5-methoxy-4-methyl-6-((1R,5S)-2-oxo-3-azabicyclo[3.1.0]hexan-3-yl)pyridin-3-yl)ethyl)-1H-pyrazole-4-carboxamide] reads 1.8 nM; that for `Cc1ccc(C#N)c([C@H]2C[C@@H](NC(=O)c3cn(C(C)c4cnc(N5C[C@H]6C[C@H]6C5=O)c(C)c4C)nn3)C2)n1` (single isomer, unassigned) [Example 98, N-((cis)-3-(3-cyano-6-methylpyridin-2-yl)cyclobutyl)-1-((R or S)-1-(4,5-dimethyl-6-((1R,5S)-2-oxo-3-azabicyclo[3.1.0]hexan-3-yl)pyridin-3-yl)ethyl)-1H-1,2,3-triazole-4-carboxamide], 27.5 nM.
Regarding `Cc1c([C@H](C)n2cc(C(=O)NC3CC(c4cccc(Cl)c4)C3O)nn2)cnc(N2C[C@H]3C[C@H]3C2=O)c1C` (single isomer, unassigned) [Example 151, N-((1R,2R,3R or 1S,2S,3S))-3-(3-chlorophenyl)-2-hydroxycyclobutyl)-1-((S)-1-(4,5-dimethyl-6-((1R,5S)-2-oxo-3-azabicyclo[3.1.0]hexan-3-yl)pyridin-3-yl)ethyl)-1H-1,2,3-triazole-4-carboxamide], inhibition was half-maximal at 1.1 nM (IC50).
As for `Cc1cc(N2C[C@H]3C[C@H]3C2=O)ncc1[C@H](C)c1cc(C(=O)N[C@H]2C[C@@H](c3cc(Cl)ccc3C#N)C2)n(C)n1` [Example 173, N-((cis)-3-(5-chloro-2-cyanophenyl)cyclobutyl)-1-methyl-3-((S)-1-(4-methyl-6-((1R,5S)-2-oxo-3-azabicyclo[3.1.0]hexan-3-yl)pyridin-3-yl)ethyl)-1H-pyrazole-5-carboxamide], the figure is 3.2 nM; as for `CC(c1cnc(N2C[C@H]3C[C@H]3C2=O)c(F)c1)n1cc(C(=O)N[C@H]2C[C@@H](c3cc(Cl)ccc3C#N)C2)cn1` (single isomer, unassigned) [Example 22, N-((cis)-3-(5-chloro-2-cyanophenyl)cyclobutyl)-1-((S or R)-1-(5-fluoro-6-((1R,5S)-2-oxo-3-azabicyclo[3.1.0]hexan-3-yl)pyridin-3-yl)ethyl)-1H-pyrazole-4-carboxamide], 1.5 nM.
Regarding `Cc1ccc(C#N)c([C@H]2C[C@@H](NC(=O)c3cn(C(C)c4cnc(N5C[C@H]6C[C@H]6C5=O)c(F)c4C)nn3)C2)c1` (single isomer, unassigned) [Example 120, N-((cis)-3-(2-cyano-5-methylphenyl)cyclobutyl)-1-((S or R)-1-(5-fluoro-4-methyl-6-((1R,5S)-2-oxo-3-azabicyclo[3.1.0]hexan-3-yl)pyridin-3-yl)ethyl)-1H-1,2,3-triazole-4-carboxamide], the IC50 (commonly the concentration that inhibits the measured activity by half) was found to be 0.6 nM.
The result for `Cc1c(C(C)n2cc(C(=O)NC3CC(c4cccc(Cl)c4)C3O)nn2)cnc(N2C[C@H]3C[C@H]3C2=O)c1F` (single isomer, unassigned) [Example 125, N-((1R,2R,3R or 1S,2S,3S)-3-(3-chlorophenyl)-2-hydroxycyclobutyl)-1-((S or R)-1-(5-fluoro-4-methyl-6-((1R,5S)-2-oxo-3-azabicyclo[3.1.0]hexan-3-yl)pyridin-3-yl)ethyl)-1H-1,2,3-triazole-4-carboxamide] reads 130 nM.
As for `Cc1cc([C@H](C)n2cc(C(=O)N[C@H]3C[C@@H](c4cc(Cl)ccc4C#N)C3)cn2)cnc1N1C[C@H]2C[C@H]2C1=O` (single isomer, unassigned) [Example 5], the figure is 0.6 nM.
For the molecule `Cc1cc(N2C[C@H]3C[C@H]3C2=O)cnc1C(C)n1cc(C(=O)N[C@H]2C[C@@H](c3cc(Cl)ccc3C#N)C2)cn1` (single isomer, unassigned) [Example 25, N-((cis)-3-(5-chloro-2-cyanophenyl)cyclobutyl)-1-((S or R)-1-(3-methyl-5-((1R,5S)-2-oxo-3-azabicyclo[3.1.0]hexan-3-yl)pyridin-2-yl)ethyl)-1H-pyrazole-4-carboxamide], the 50% inhibitory concentration (IC50) turned out to be 25.3 nM.
The result for `Cc1c(C(C)n2cc(C(=O)N[C@H]3C[C@@H](c4cc(Cl)ccc4C#N)C3)cn2)cnc(N2C[C@H]3C[C@H]3C2=O)c1F` (single isomer, unassigned) [Example 29, N-((cis)-3-(5-chloro-2-cyanophenyl)cyclobutyl)-1-((S or R)-1-(5-fluoro-4-methyl-6-((1R,5S)-2-oxo-3-azabicyclo[3.1.0]hexan-3-yl)pyridin-3-yl)ethyl)-1H-pyrazole-4-carboxamide] reads 1.6 nM.
As for `[2H]C1(NC(=O)c2cn([C@@H](C)c3cnc(N4C[C@H]5C[C@H]5C4=O)cc3C)nn2)CC(C)(c2cc(Cl)ccc2C#N)C1` (single isomer, unassigned) [Example 146, N-((trans or cis)-3-(5-chloro-2-cyanophenyl)-3-methylcyclobutyl-1-d)-1-((S)-1-(4-methyl-6-((1R,5S)-2-oxo-3-azabicyclo[3.1.0]hexan-3-yl)pyridin-3-yl)ethyl)-1H-1,2,3-triazole-4-carboxamide], the figure is 0.7 nM; as for `CC(c1cnc(N2C[C@H]3C[C@H]3C2=O)nc1)n1cc(C(=O)N[C@H]2C[C@@H](c3cc(Cl)ccc3C#N)C2)nn1` (single isomer, unassigned) [Example 78], 41.5 nM.
`Cc1ccc(C#N)c([C@H]2C[C@@H](NC(=O)c3cn(C(C)c4cnc(N5C[C@H]6C[C@H]6C5=O)c(C)c4)nn3)C2)c1` (single isomer, unassigned) [Example 133, N-((cis)-3-(2-cyano-5-methylphenyl)cyclobutyl)-1-((R or S)-1-(5-methyl-6-((1R,5S)-2-oxo-3-azabicyclo[3.1.0]hexan-3-yl)pyridin-3-yl)ethyl)-1H-1,2,3-triazole-4-carboxamide] registered an IC50 of 2.5 nM.
The result for `COc1cc(C(C)n2cc(C(=O)N[C@H]3C[C@@H](c4cc(Cl)ccc4C#N)C3)cn2)cnc1N1C[C@H]2C[C@H]2C1=O` (single isomer, unassigned) [Example 14, N-((cis)-3-(5-chloro-2-cyanophenyl)cyclobutyl)-1-((S or R)-1-(5-methoxy-6-((1R,5S)-2-0x0-3-azabicyclo[3.1.0]hexan-3-yl)pyridin-3-yl)ethyl)-1H-pyrazole-4-carboxamide] reads 2.8 nM.
The result for `Cc1cc(N2C[C@H]3C[C@H]3C2=O)ncc1C(C)n1cc(C(=O)N[C@H]2C[C@@H](c3cc(Cl)ccc3C#N)C2)nn1` (single isomer, unassigned) [Example 60, N-((cis)-3-(5-chloro-2-cyanophenyl)cyclobutyl)-1-((S or R)-1-(4-methyl-6-((1R,5S)-2-oxo-3-azabicyclo[3.1.0]hexan-3-yl)pyridin-3-yl)ethyl)-1H-1,2,3-triazole-4-carboxamide] reads 14.6 nM.
